For assay [1], the system named is RKO p27 uninduced (proliferating) colon adenocarcinoma cells. In words: Alamar Blue cell viability assay, RKO p27 uninduced (proliferating). Format: cell-based. To be noted: Homo sapiens, RKOp27, Table B1, anti-proliferative/cytotoxic activity, 72 hours, read-out: −log EC50 RKO p27 uninduced (proliferating) (converted). How it is done:
The anti-proliferative/cytotoxic activity of the compounds described herein can be tested on subclones of RKO human colon adenocarcinoma cells (Schmidt et al., Oncogene 19, 2423-2429; 2000) using the Alamar Blue cell viability assay (described in O'Brien et al. Eur J Biochem 267, 5421-5426, 2000). The compounds are dissolved as 10 mM solutions in DMSO and subsequently diluted in semi-logarithmic steps. DMSO dilutions are further diluted 1:100 into Dulbecco's modified Eagle's medium (DMEM) containing 10% fetal calf serum to a final concentration twice as much as the final concentration in the test. RKO subclones are seeded into 96 well flat bottom plates at a density of 4000 cells per well in a volume of 50 μl per well. 24 hours after seeding the 50 μl each of the compound dilutions in DMEM medium are added into each well of the 96 well plate. Each compound dilution is tested as triplicates. Wells containing untreated control cells are filled with 50 μl DMEM medium containing 1% DMSO. The cells are then incubated with the substances for 72 hours at 37° C. in a humidified atmosphere containing 5% carbon dioxide. To determine the viability of the cells, 10 μl of an Alamar Blue solution (Biosource) are added and the fluorescence is measured at an extinction of 544 nm and an emission of 590 nm. For the calculation of the cell viability the emission value from untreated cells is set as 100% viability and the emission rates of treated cells are set in relation to the values of untreated cells. Viabilities are expressed as % values. The Graphpad Prism program is used for the calculation of EC50 values for anti-proliferative/cytotoxic activity out of the obtained dose-response curves.
(§1) To determine the cell cycle specific mode of action, subclones of RKO colon adenocarcinoma cells (RKOp21 or RKOp27 as described by Schmidt et al. in Oncogene 19, 2423-2429; 2000) are seeded into 96 well flat bottom plates at a density of 16000 cells per well in a volume of 50 μl per well in DMEM growth medium with 10% FCS containing 10 μM Ponasterone A. 24 hours after seeding the 50 μl each of the compound dilutions in DMEM medium are added into each well of the 96-well plate. Each compound dilution is tested as triplicates. Wells containing untreated control cells are filled with 50 μl DMEM medium containing 1% DMSO. The cells are then incubated with the substances for 72 hours at 37° C. in a humidified atmosphere containing 5% carbon dioxide. To determine the viability of the cells, 10 μl of an Alamar Blue solution (Biosource) are added and the fluorescence is measured at an extinction of 544 nm and an emission of 590 nm. For the calculation of the cell viability the emission value from untreated cells is set as 100% viability and the emission rates of treated cells are set in relation to the values of untreated cells. Viabilities are expressed as % values. The Graphpad Prism program (GraphPad Software, Inc) is used for the calculation of EC50 values out of the obtained dose-response curves. Viability is compared of proliferating cells grown in the absence of the inducer Ponasterone A, versus viability of cells arrested by the expression of ectopic p27Kip1 induced by Ponasterone A.
(§2) Representative values for anti-proliferation/cytotoxicity [measured as −log EC50 (mol/l)] determined in the aforementioned assays follow from the following tables B1, B2 and B3, in which the numbers of the compounds correspond to the numbers of the examples.

The test system of assay [2] is RKO p27 induced (arrested) colon adenocarcinoma cells. In words: Alamar Blue cell viability assay, RKO p27 induced by Ponasterone A (arrested). To be noted: Homo sapiens, RKOp27, Table B1, cells arrested by Ponasterone A-induced p27Kip1, 72 hours, read-out: −log EC50 RKO p27 induced (arrested) (converted). In kind it is cell-based. Here is the method:
as §1, §2

A value given as a limit tells only on which side of the number the result lay.

The values below come from patent US8530493B2, “Indolopyridines as Eg5 kinesin modulators” (4SC AG, priority 2006, dated 2013).

`CCOc1ccc2[nH]c3c(c2c1)C[C@@]1(C)C(=O)N(CCN(C)C)C(=O)N1[C@@H]3c1cccc(O)c1` (racemic) [Example 23, (3aSR,10RS)-2-(2-Dimethylamino-ethyl)-6-ethoxy-10-(3-hydroxy-phenyl)-3a-methyl-3a,4,9,10-tetrahydro-2,9,10a-triaza-cyclopenta[b]fluorene-1,3-dione]: the EC50 in assay [1] is no more than 0.0398 µM; in assay [2] it was no less than 3.16 µM.
`CC[C@@]12Cc3c([nH]c4ccc(OC)cc34)[C@@H](c3cccc(O)c3)N1C(=O)N(CCCN(C)C)C2=O` (racemic) [Example 19, (3aSR,10RS)-2-(3-Dimethylamino-propyl)-3a-ethyl-10-(3-hydroxy-phenyl)-6-methoxy-3a,4,9,10-tetrahydro-2,9,10a-triaza-cyclopenta[b]fluorene-1,3-dione]: the EC50 in assay [1] is no more than 0.0398 µM; in assay [2] it was no less than 3.16 µM.
The matching figures for `CCNCCN1C(=O)N2[C@H](c3cccc(O)c3)c3[nH]c4ccc(OC)cc4c3C[C@@]2(C)C1=O` (racemic) [Example 35, (3aSR,10RS)-2-(2-Ethylamino-ethyl)-10-(3-hydroxy-phenyl)-6-methoxy-3a-methyl-3a,4,9,10-tetrahydro-2,9,10a-triaza-cyclopenta[b]fluorene-1,3-dione]: no more than 0.0398 µM and no less than 3.16 µM.
Consider `CNCCN1C(=O)N2[C@H](c3cccc(O)c3)c3[nH]c4ccc(OC(F)F)cc4c3C[C@@]2(C)C1=O` (racemic) [Example 42, (3aSR,10RS)-6-(1,1-Difluoro-methoxy)-10-(3-hydroxy-phenyl)-3a-methyl-2-(2-methylaminoethyl)-3a,4,9,10-tetrahydro-2,9,10a-triaza-cyclopenta[b]fluorene-1,3-dione], for which the EC50 is no more than 0.0398 µM in assay [1] and no less than 3.16 µM in assay [2].
The matching figures for `CN1C(=O)N2[C@H](c3cccc(O)c3)c3[nH]c4ccc(Br)cc4c3C[C@@]2(C)C1=O` (racemic) [Example 4, (3aSR,10RS)-6-Bromo-10-(3-hydroxy-phenyl)-2,3a-dimethyl-3a,4,9,10-tetrahydro-2,9,10a-triaza-cyclopenta[b]fluorene-1,3-dione]: 0.0398 to 0.251 µM and no less than 3.16 µM.
In the case of `COc1ccc2[nH]c3c(c2c1)C[C@@]1(C)C(=O)N(CCNCC(C)C)C(=O)N1[C@@H]3c1cccc(O)c1` (racemic) [Example 49, (3aSR,10RS)-10-(3-Hydroxy-phenyl)-2-(2-isobutylamino-ethyl)-6-methoxy-3a-methyl-3a,4,9,10-tetrahydro-2,9,10a-triaza-cyclopenta[b]fluorene-1,3-dione], the EC50 is no more than 0.0398 µM in assay [1] and no less than 3.16 µM in assay [2].
On to `COc1ccc2[nH]c3c(c2c1)C[C@@]1(C)C(=O)N(CCNC2CC2)C(=O)N1[C@@H]3c1cccc(O)c1` (racemic) [Example 53, (3aSR,10RS)-2-(2-Cyclopropylamino-ethyl)-10-(3-hydroxy-phenyl)-6-methoxy-3a-methyl-3a,4,9,10-tetrahydro-2,9,10a-triaza-cyclopenta[b]fluorene-1,3-dione], for which the 50% effective concentration (EC50) in assay [1] was no more than 0.0398 µM; in assay [2], no less than 3.16 µM.
Consider `CC(C)NCCN1C(=O)N2[C@H](c3cccc(O)c3)c3[nH]c4ccc(Cl)cc4c3C[C@@]2(C)C1=O` (racemic) [Example 38, (3aSR,10RS)-6-Chloro-10-(3-hydroxy-phenyl)-2-(2-isopropylamino-ethyl)-3a-methyl-3a,4,9,10-tetrahydro-2,9,10a-triaza-cyclopenta[b]fluorene-1,3-dione], for which the EC50 is no more than 0.0398 µM in assay [1] and no less than 0.316 µM in assay [2].
The matching figures for `C[C@@]12Cc3c([nH]c4ccc(Cl)cc34)[C@@H](c3cccc(O)c3)N1C(=O)N(CCN)C2=O` (racemic) [Example 30, (3aSR,10RS)-2-(2-Amino-ethyl)-6-chloro-10-(3-hydroxy-phenyl)-3a-methyl-3a,4,9,10-tetrahydro-2,9,10a-triaza-cyclopenta[b]fluorene-1,3-dione]: no more than 0.0398 µM and no less than 3.16 µM.
